Holding throughout (assay type): in vivo
The test system of experiment [1] is Cabbage Looper (Trichoplusia ni). The experiment is described as follows: Bioassay on Cabbage Looper (CL), 128-well diet tray assay. The conditions noted are these: Cabbage Looper, Table ABC, read-out: CL rating. In short, it runs like this:
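Second-instar larvae, one to five per well, placed on artificial diet surface-treated with 50 μg/cm^2 compound in acetone-water, eight wells per compound. Held 5-7 days at 25° C, 14:10 light-dark; percent mortality per well averaged across wells.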

Experiment [2] has as its system Yellow Fever Mosquito (Aedes aegypti). The experiment is described as follows: Bioassay on Yellow Fever Mosquito (YFM) larvae, 96-well plate. The conditions noted are these: Table ABC. In short, it runs like this: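 About 1-day-old larvae in water with liver powder were added to wells holding compound from a 4000 ppm DMSO master diluted in 90:10 water:acetone. Plates covered and kept at room temperature for 3 days, then each well scored for mortality on a rating scale.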

Experiment [3] concerns Beet Armyworm (Spodoptera exigua). The experiment is described as follows: Bioassay on Beet Armyworm (BAW), 128-well diet tray assay. The conditions noted are these: Beet Armyworm, Table ABC, read-out: BAW rating. In short, it runs like this:
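Second-instar larvae (one to five per well) placed on artificial diet surface-treated with 50 μg/cm^2 test molecule in 90:10 acetone-water, dried, eight wells per molecule. Held at 25° C, 14:10 light-dark, five to seven days; percent mortality recorded per well and averaged across the eight wells.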

Experiment [4] has as its system Green Peach Aphid (Myzus persicae). The experiment is described as follows: Bioassay on Green Peach Aphid (GPA), foliar spray on cabbage seedlings. The following applies: 72 h, Table ABC, read-out: GPA rating. The protocol: Example B: Bioassays on Green Peach Aphid (Myzus Persicae, MYZUPE) (“GPA”) Certain molecules disclosed in this document were tested against GPA using procedures described in the following example. In the reporting of the results, the “GPA & YFM Rating Table” was used (See Table Section). Cabbage seedlings grown in 3-inch pots, with 2-3 small (3-5 cm) true leaves, were used as test substrate. The seedlings were infested with 20-50 GPA (wingless adult and nymph stages) one day prior to chemical application. Four pots with individual seedlings were used for each treatment. Test molecules (2 mg) were dissolved in 2 mL of acetone/methanol (1:1) solvent, forming stock solutions of 1000 ppm test molecule. The stock solutions were diluted 5× with 0.025% Tween 20 in water to obtain the solution at 200 ppm test molecule. A hand-held aspirator-type sprayer was used for spraying a solution to both sides of […] leaves until runoff. Reference plants (solvent check) were sprayed with the diluent only containing 20% by volume of acetone/methanol (1:1) solvent. Treated plants were held in a holding room for three days at approximately 25° C. and ambient relative humidity (RH) prior to grading. Evaluation was conducted by counting the number of live aphids per plant under a microscope. Percent Control was measured by using Abbott's correction formula (W. S. Abbott, “A Method of Computing the Effectiveness of an Insecticide” J. Econ. Entomol. 18 (1925), pp. 265-267) as follows. Corrected % Control=100*(X−Y)/X • where • X=No. of live aphids on solvent check plants and • Y=No. of live aphids on treated plants The results are indicated in the table entitled “Table ABC: Biological Results” (See Table Section).

`O=C(N[C@@H]1CON(CC(F)(F)F)C1=O)c1ccc(/C(F)=C/C(c2cc(Cl)c(Cl)c(Cl)c2)C(F)F)cc1C(F)(F)F` (stereo partly drawn) [F177, N—((R)-3-Oxo-2-(2,2,2-trifluoroethyl)isoxazolidin-4-yl)-4-((Z)-1,4,4-trifluoro-3-(3,4,5-trichlorophenyl)but-1-en-1-yl)-2-(trifluoromethyl)benzamide]: the pest or weed control at 50 µg/cm2 in experiment [1] and in experiment [3] was 50 to 100% throughout. In addition, in experiment [2], the YFM rating entry is reported as “A (80-100)”. In experiment [4], the pest or weed control at 200 µg/mL lay in the range of 80 to 100%.

For the compound `CN(CC(F)(F)F)C(=O)CNC(=O)c1ccc(/C(F)=C/C(c2ccc(F)c(Cl)c2)C(F)(F)F)cc1C(F)(F)F` (centres unmarked) [PF6, (Z)-4-(3-(3-Chloro-4-fluorophenyl)-1,4,4,4-tetrafluorobut-1-en-1-yl)-N-(2-(methyl(2,2,2-trifluoroethyl)amino]-2-oxoethyl)-2-(trifluoromethyl)benzamide], the pest or weed control at 50 µg/cm2 in experiment [1] and in experiment [3] was 50 to 100% throughout. Further, the YFM rating result in experiment [2] is given as “A (80-100)”. Also, in experiment [4], the pest or weed control at 200 µg/mL is 80 to 100%.

For the compound `Cc1cc(C(/C=C(\F)c2ccc(C(=O)NC3(C(=O)N(C)CC(F)(F)F)CC3)c(C(F)(F)F)c2)C(F)(F)F)cc(Cl)c1Cl` (centres unmarked) [PF16, (Z)-4-(3-(3,4-Dichloro-5-methylphenyl)-1,4,4,4-tetrafluorobut-1-en-1-yl)-N-(1-(methyl(2,2,2-trifluoroethyl)carbamoyl)cyclopropyl)-2-(trifluoromethyl)benzamide], the pest or weed control at 50 µg/cm2 in experiment [1] and in experiment [3] was 50 to 100% throughout. In addition, in experiment [2], the YFM rating entry is “A (80-100)”. For the same compound, the pest or weed control at 200 µg/mL in experiment [4] lay in the range of 0 to 80%.

As to `CN(CC(F)(F)F)C(=O)CNC(=O)c1ccc(/C(F)=C/C(c2ccc(Br)c(Cl)c2)C(F)(F)F)cc1C(F)(F)F` (centres unmarked) [PF24, (Z)-4-(3-(4-Bromo-3-chlorophenyl)-1,4,4,4-tetrafluorobut-1-en-1-yl)-N-(2-(methyl(2,2,2-trifluoroethyl)amino)-2-oxoethyl)-2-(trifluoromethyl)benzamide], the pest or weed control at 50 µg/cm2 in experiment [1] and in experiment [3] was 50 to 100% each time. In addition, in experiment [2], the YFM rating entry is listed as “A (80-100)”. Also, the pest or weed control at 200 µg/mL in experiment [4] is 80 to 100%.

With `O=C(NC1(C(=O)NCC(F)(F)F)CC1)c1ccc(/C(F)=C/C(c2ccc(Br)c(Cl)c2)C(F)(F)F)cc1C(F)(F)F` (centres unmarked) [PF27], the pest or weed control at 50 µg/cm2 in experiment [1] and in experiment [3] was 50 to 100% in each case. Moreover, the YFM rating entry in experiment [2] is “B (More than 0-Less than 80)”. Besides, the pest or weed control at 200 µg/mL in experiment [4] was in the range of 80 to 100%.

The record behind these values is patent US10251394B2, “Molecules having pesticidal utility, and intermediates, compositions, and processes, related thereto” (Dow AgroSciences LLC, priority 2016, dated 2019).
